From patent publication US20240327408A1, “COMPOUNDS CONTAINING TETRAHYDRONAPHTHYRIDINONE OR TETRAHYDROPYRIDOPYRIMIDINONE SKELETON, PREPARATION METHOD THEREFOR AND PHARMACEUTICAL USE THEREOF” (CHINA PHARMACEUTICAL UNIVERSITY, priority 2021, published 2024)

Legend:
MV4; 11 cells = test: inhibiting the growth of MV4; 11 cells; assay type: cell-based; conditions: Homo sapiens
hClpP = target: T1, hClpP (Homo sapiens, UniProt Q16740); test: activating ClpP hydrolysis of FITC-casein (fluorescence kinetic detection); assay type: biochemical; conditions: hClpP 1 μM, FITC-Casein 4 μM, 37° C.
T1 construct: made in house
In short: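 hClpP at 1 μM final preincubated with compounds (assay-buffer dilutions 200 μM–2 nM, before mixing) 30 min at 37 °C, then 4 μM final FITC-casein added. Fluorescence read kinetically at 37 °C every 1 min for 15 min, duplicate wells.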

T1 sequence (Q16740 57-277): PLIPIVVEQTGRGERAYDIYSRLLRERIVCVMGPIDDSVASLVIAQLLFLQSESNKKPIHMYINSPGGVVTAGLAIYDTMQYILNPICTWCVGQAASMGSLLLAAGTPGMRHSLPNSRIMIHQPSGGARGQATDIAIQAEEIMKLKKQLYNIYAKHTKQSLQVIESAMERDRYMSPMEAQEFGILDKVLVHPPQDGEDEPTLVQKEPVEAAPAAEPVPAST

IC50 (MV4; 11 cells) [µM] | EC50 (hClpP) [µM] | Compound
< 1 | < 1 | N#Cc1cccc(CN2CCc3c(c(=O)n(Cc4ccccc4)c4nccn34)C2)c1 [Compound I-111, 7-(3-cyanobenzyl)-4-benzyl-6,7,8,9-tetrahydroimidazo[1,2-a]pyrido[3,4-e]pyrimidine-5(4H)-one]
< 1 | < 1 | O=c1c2c(n3ccnc3n1Cc1ccc(F)cc1)CCN(Cc1ccccc1)C2 [Compound I-112, 7-benzyl-4-(4-fluorobenzyl)-6,7,8,9-tetrahydroimidazo[1,2-a]pyrido[3,4-e]pyrimidine-5(4H)-one]
< 1 | < 1 | O=c1c2c(n3ccnc3n1Cc1ccc(F)cc1)CCN(Cc1cccc(F)c1)C2 [Compound I-113, 7-(3-fluorobenzyl)-4-(4-fluorobenzyl)-6,7,8,9-tetrahydroimidazo[1,2-a]pyrido[3,4-e]pyrimidine-5(4H)-one]
< 1 | < 1 | O=c1c2c(n3ccnc3n1Cc1ccc(F)cc1)CCN(Cc1cccc(Cl)c1)C2 [Compound I-114, 7-(3-chlorobenzyl)-4-(4-fluorobenzyl)-6,7,8,9-tetrahydroimidazo[1,2-a]pyrido[3,4-e]pyrimidine-5(4H)-one]
< 1 | < 1 | Cc1cccc(CN2CCc3c(c(=O)n(Cc4ccc(F)cc4)c4nccn34)C2)c1 [Compound I-115, 7-(3-methylbenzyl)-4-(4-fluorobenzyl)-6,7,8,9-tetrahydroimidazo[1,2-a]pyrido[3,4-e]pyrimidine-5(4H)-one]
< 1 | < 1 | N#Cc1cccc(CN2CCc3c(c(=O)n(Cc4ccc(F)cc4)c4nccn34)C2)c1 [Compound I-116, 7-(3-cyanobenzyl)-4-(4-fluorobenzyl)-6,7,8,9-tetrahydroimidazo[1,2-a]pyrido[3,4-e]pyrimidine-5(4H)-one]
< 1 | < 1 | O=c1c2c(n3ccnc3n1Cc1ccc(Cl)cc1)CCN(Cc1ccccc1)C2 [Compound I-117, 7-benzyl-4-(4-chlorobenzyl)-6,7,8,9-tetrahydroimidazo[1,2-a]pyrido[3,4-e]pyrimidine-5(4H)-one]
< 1 | < 1 | O=c1c2c(n3ccnc3n1Cc1ccc(Cl)cc1)CCN(Cc1cccc(F)c1)C2 [Compound I-118, 7-(3-fluorobenzyl)-4-(4-chlorobenzyl)-6,7,8,9-tetrahydroimidazo[1,2-a]pyrido[3,4-e]pyrimidine-5(4H)-one]
< 1 | < 1 | O=c1c2c(n3ccnc3n1Cc1ccc(Cl)cc1)CCN(Cc1cccc(Cl)c1)C2 [Compound I-119, 7-(3-chlorobenzyl)-4-(4-chlorobenzyl)-6,7,8,9-tetrahydroimidazo[1,2-a]pyrido[3,4-e]pyrimidine-5(4H)-one]
< 1 | < 1 | Cc1cccc(CN2CCc3c(c(=O)n(Cc4ccc(Cl)cc4)c4nccn34)C2)c1 [Compound I-120, 7-(3-methylbenzyl)-4-(4-chlorobenzyl)-6,7,8,9-tetrahydroimidazo[1,2-a]pyrido[3,4-e]pyrimidine-5(4H)-one]
< 1 | < 1 | N#Cc1cccc(CN2CCc3c(c(=O)n(Cc4ccc(Cl)cc4)c4nccn34)C2)c1 [Compound I-121, 7-(3-cyanobenzyl)-4-(4-chlorobenzyl)-6,7,8,9-tetrahydroimidazo[1,2-a]pyrido[3,4-e]pyrimidine-5(4H)-one]
< 1 | < 1 | O=c1c2c(n3ccnc3n1Cc1ccc(F)cc1F)CCN(Cc1ccccc1)C2 [Compound I-122, 7-benzyl-4-(2,4-difluorobenzyl)-6,7,8,9-tetrahydroimidazo[1,2-a]pyrido[3,4-e]pyrimidine-5(4H)-one]
< 1 | < 1 | O=c1c2c(n3ccnc3n1Cc1ccc(F)cc1F)CCN(Cc1cccc(F)c1)C2 [Compound I-123, 7-(3-fluorobenzyl)-4-(2,4-difluorobenzyl)-6,7,8,9-tetrahydroimidazo[1,2-a]pyrido[3,4-e]pyrimidine-5(4H)-one]
< 1 | < 1 | O=c1c2c(n3ccnc3n1Cc1ccc(F)cc1F)CCN(Cc1cccc(Cl)c1)C2 [Compound I-124, 7-(3-chlorobenzyl)-4-(2,4-difluorobenzyl)-6,7,8,9-tetrahydroimidazo[1,2-a]pyrido[3,4-e]pyrimidine-5(4H)-one]
< 1 | < 1 | Cc1cccc(CN2CCc3c(c(=O)n(Cc4ccc(F)cc4F)c4nccn34)C2)c1 [Compound I-125, 7-(3-methylbenzyl)-4-(2,4-difluorobenzyl)-6,7,8,9-tetrahydroimidazo[1,2-a]pyrido[3,4-e]pyrimidine-5(4H)-one]
< 1 | < 1 | N#Cc1cccc(CN2CCc3c(c(=O)n(Cc4ccc(F)cc4F)c4nccn34)C2)c1 [Compound I-126, 7-(3-cyanobenzyl)-4-(2,4-difluorobenzyl)-6,7,8,9-tetrahydroimidazo[1,2-a]pyrido[3,4-e]pyrimidine-5(4H)-one]

IC50 (MV4; 11 cells) [µM] | EC50 (hClpP) [µM] | Compound
< 1 | < 1 | O=c1c2c(n3ccnc3n1Cc1ccc(C(F)(F)F)cc1)CCN(Cc1ccccc1)C2 [Compound I-127, 7-benzyl-4-(4-trifluoromethylbenzyl)-6,7,8,9-tetrahydroimidazo[1,2-a]pyrido[3,4-e]pyrimidine-5(4H)-one]
< 1 | < 1 | O=c1c2c(n3ccnc3n1Cc1ccc(C(F)(F)F)cc1)CCN(Cc1cccc(F)c1)C2 [Compound I-128, 7-(3-fluorobenzyl)-4-(4-trifluoromethylbenzyl)-6,7,8,9-tetrahydroimidazo[1,2-a]pyrido[3,4-e]pyrimidine-5(4H)-one]
< 1 | < 1 | Cc1cccc(CN2CCc3c(c(=O)n(Cc4ccc(C(F)(F)F)cc4)c4nccn34)C2)c1 [Compound I-130, 7-(3-methylbenzyl)-4-(4-trifluoromethylbenzyl)-6,7,8,9-tetrahydroimidazo[1,2-a]pyrido[3,4-e]pyrimidine-5(4H)-one]
< 1 | < 1 | N#Cc1cccc(CN2CCc3c(c(=O)n(Cc4ccc(C(F)(F)F)cc4)c4nccn34)C2)c1 [Compound I-131, 7-(3-cyanobenzyl)-4-(4-trifluoromethylbenzyl)-6,7,8,9-tetrahydroimidazo[1,2-a]pyrido[3,4-e]pyrimidine-5(4H)-one]
< 1 | < 1 | Cc1ccc(Cn2c(=O)c3c(n4ccnc24)CCN(Cc2ccccc2)C3)cc1 [Compound I-132, 7-benzyl-4-(4-methylbenzyl)-6,7,8,9-tetrahydroimidazo[1,2-a]pyrido[3,4-e]pyrimidine-5(4H)-one]
< 1 | < 1 | Cc1ccc(Cn2c(=O)c3c(n4ccnc24)CCN(Cc2cccc(F)c2)C3)cc1 [Compound I-133, 7-(3-fluorobenzyl)-4-(4-methylbenzyl)-6,7,8,9-tetrahydroimidazo[1,2-a]pyrido[3,4-e]pyrimidine-5(4H)-one]
< 1 | < 1 | Cc1ccc(Cn2c(=O)c3c(n4ccnc24)CCN(Cc2cccc(Cl)c2)C3)cc1 [Compound I-134, 7-(3-chlorobenzyl)-4-(4-methylbenzyl)-6,7,8,9-tetrahydroimidazo[1,2-a]pyrido[3,4-e]pyrimidine-5(4H)-one]
< 1 | < 1 | Cc1ccc(Cn2c(=O)c3c(n4ccnc24)CCN(Cc2cccc(C)c2)C3)cc1 [Compound I-135, 7-(3-methylbenzyl)-4-(4-methylbenzyl)-6,7,8,9-tetrahydroimidazo[1,2-a]pyrido[3,4-e]pyrimidine-5(4H)-one]
< 1 | < 1 | Cc1ccc(Cn2c(=O)c3c(n4ccnc24)CCN(Cc2cccc(C#N)c2)C3)cc1 [Compound I-136, 7-(3-cyanobenzyl)-4-(4-methylbenzyl)-6,7,8,9-tetrahydroimidazo[1,2-a]pyrido[3,4-e]pyrimidine-5(4H)-one]
< 1 | < 1 | CCc1ccc(Cn2c(=O)c3c(n4ccnc24)CCN(Cc2ccccc2)C3)cc1 [Compound I-137, 7-benzyl-4-(4-ethylbenzyl)-6,7,8,9-tetrahydroimidazo[1,2-a]pyrido[3,4-e]pyrimidine-5(4H)-one]
< 1 | < 1 | CCc1ccc(Cn2c(=O)c3c(n4ccnc24)CCN(Cc2cccc(F)c2)C3)cc1 [Compound I-138, 7-(3-fluorobenzyl)-4-(4-ethylbenzyl)-6,7,8,9-tetrahydroimidazo[1,2-a]pyrido[3,4-e]pyrimidine-5(4H)-one]
< 1 | < 1 | CCc1ccc(Cn2c(=O)c3c(n4ccnc24)CCN(Cc2cccc(Cl)c2)C3)cc1 [Compound I-139, 7-(3-chlorobenzyl)-4-(4-ethylbenzyl)-6,7,8,9-tetrahydroimidazo[1,2-a]pyrido[3,4-e]pyrimidine-5(4H)-one]
< 1 | < 1 | CCc1ccc(Cn2c(=O)c3c(n4ccnc24)CCN(Cc2cccc(C)c2)C3)cc1 [Compound I-140, 7-(3-methylbenzyl)-4-(4-ethylbenzyl)-6,7,8,9-tetrahydroimidazo[1,2-a]pyrido[3,4-e]pyrimidine-5(4H)-one]
< 1 | < 1 | CCc1ccc(Cn2c(=O)c3c(n4ccnc24)CCN(Cc2cccc(C#N)c2)C3)cc1 [Compound I-141, 7-(3-cyanobenzyl)-4-(4-ethylbenzyl)-6,7,8,9-tetrahydroimidazo[1,2-a]pyrido[3,4-e]pyrimidine-5(4H)-one]
< 1 | < 1 | COc1ccc(Cn2c(=O)c3c(n4ccnc24)CCN(Cc2ccccc2)C3)cc1 [Compound I-142, 7-benzyl-4-(4-methoxybenzyl)-6,7,8,9-tetrahydroimidazo[1,2-a]pyrido[3,4-e]pyrimidine-5(4H)-one]
< 1 | < 1 | COc1ccc(Cn2c(=O)c3c(n4ccnc24)CCN(Cc2cccc(F)c2)C3)cc1 [Compound I-143, 7-(3-fluorobenzyl)-4-(4-methoxybenzyl)-6,7,8,9-tetrahydroimidazo[1,2-a]pyrido[3,4-e]pyrimidine-5(4H)-one]
